The source of these data is patent US20230391786A1, “cGAS INHIBITORS” (Eli Lilly and Company, priority 2022, published 2023).

A word on the IC50: it is the midpoint of a concentration-inhibition curve.

Sequence of recombinant human cGAS (Q8N884 whole entry): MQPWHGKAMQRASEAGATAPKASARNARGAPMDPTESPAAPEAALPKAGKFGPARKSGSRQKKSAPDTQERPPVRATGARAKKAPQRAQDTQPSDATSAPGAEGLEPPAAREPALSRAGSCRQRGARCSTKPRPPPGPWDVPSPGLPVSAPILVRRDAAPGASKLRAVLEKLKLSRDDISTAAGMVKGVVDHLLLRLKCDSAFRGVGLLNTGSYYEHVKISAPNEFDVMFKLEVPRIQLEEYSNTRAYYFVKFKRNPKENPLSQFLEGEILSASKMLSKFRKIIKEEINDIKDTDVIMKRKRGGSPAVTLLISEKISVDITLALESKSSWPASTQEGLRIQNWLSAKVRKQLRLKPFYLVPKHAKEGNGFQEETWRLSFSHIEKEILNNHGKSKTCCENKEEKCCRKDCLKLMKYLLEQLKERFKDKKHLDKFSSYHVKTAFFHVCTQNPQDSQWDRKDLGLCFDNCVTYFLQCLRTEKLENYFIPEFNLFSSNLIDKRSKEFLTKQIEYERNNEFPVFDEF

In this assay the target is recombinant human cGAS (Homo sapiens (Human), UniProt Q8N884). Nature of the assay: In vitro inhibition assay of cGAS activity (cGAMP production, RapidFire mass spectrometry). In kind it is biochemical. To be noted: 10 nM recombinant human cGAS, 60 nM 75-bp dsDNA, ATP, GTP, room temperature 3 hours, read-out: IC50 (μM), In vitro inhibition assay for Compounds 95-348. The method, boiled down:
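Full-length His6-tagged human cGAS (10 nM, E. coli-expressed) was incubated 3 h at room temperature with 60 nM 75-bp dsDNA, ATP, 50 μM GTP and compound at pH 7.5 with 5 mM MgCl2. cGAMP formation was measured by RapidFire mass spectrometry, and IC50 was taken from a 4-parameter logistic fit.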
Consider `CCS(=O)(=O)NCc1[nH]c2c(Cl)c(Cl)ccc2c1-c1cn[nH]c1` [Example 105, N-((6,7-Dichloro-3-(1H-pyrazol-4-yl)-1H-indol-2-yl)methyl)ethanesulfonamide], for which the IC50 is 0.0712 µM.
Under `CC(=O)NCC(=O)NCc1[nH]c2c(Cl)c(Cl)ccc2c1-c1cn[nH]c1` [Example 106, 2-Acetamido-N-((6,7-dichloro-3-(1H-pyrazol-4-yl)-1H-indol-2-yl)methyl)acetamide] stands 0.0561 µM; under `COCCC(OC)C(=O)N1CCn2c(c(-c3cn[nH]c3)c3ccc(Cl)c(Cl)c32)C1` (stereo not shown) [Example 108, 1-[6,7-Dichloro-10-(1H-pyrazol-4-yl)-3,4-dihydro-1H-pyrazino[1,2-a]indol-2-yl]-2,4-dimethoxy-butan-1-one], 0.0621 µM.
Under `CC(=O)N1CCOCC1C(=O)N1CCn2c(c(-c3cn[nH]c3)c3ccc(Cl)c(Cl)c32)C1` (stereo not shown) [Example 109, 1-(3-(6,7-Dichloro-10-(1H-pyrazol-4-yl)-1,2,3,4-tetrahydropyrazino[1,2-a]indole-2-carbonyl)morpholino)ethan-1-one] stands 0.0698 µM; under `Cn1ncnc1CCC(=O)N1CCn2c(c(-c3cn[nH]c3)c3ccc(Cl)c(Cl)c32)C1` [Example 110, 1-[6,7-Dichloro-10-(1H-pyrazol-4-yl)-3,4-dihydro-1H-pyrazino[1,2-a]indol-2-yl]-3-(2-methyl-1,2,4-triazol-3-yl)propan-1-one], 0.0561 µM.
Under `OCC(O)CNc1cc(Cl)c(Cl)c2[nH]cc(-c3cn[nH]c3)c12` (stereo not shown) [Example 175, 3-[[6,7-Dichloro-3-(1H-pyrazol-4-yl)-1H-indol-4-yl]amino]propane-1,2-diol] stands 0.0585 µM; under `N#CCC(=O)Nc1cc(Cl)c(Cl)c2[nH]cc(-c3cn[nH]c3)c12` [Example 176, 2-Cyano-N-[6,7-dichloro-3-(1H-pyrazol-4-yl)-1H-indol-4-yl]acetamide], 0.0864 µM; under `CCNC(=O)COCC(=O)N1CCn2c(c(-c3cn[nH]c3)c3ccc(Cl)c(Cl)c32)C1` [Example 179, 2-[2-[6,7-Dichloro-10-(1H-pyrazol-4-yl)-3,4-dihydro-1H-pyrazino[1,2-a]indol-2-yl]-2-oxo-ethoxy]-N-ethyl-acetamide], 0.0585 µM.
Regarding `CN1CC(=O)N(CC(=O)N2CCn3c(c(-c4cn[nH]c4)c4ccc(Cl)c(Cl)c43)C2)C1=O` [Example 311, 3-(2-(6,7-Dichloro-10-(1H-pyrazol-4-yl)-3,4-dihydropyrazino[1,2-a]indol-2(1H)-yl)-2-oxoethyl)-1-methylimidazolidine-2,4-dione], the IC50 was determined as 0.043 µM.
The result for `COCCN1CC(C(=O)N2CCn3c(c(-c4cn[nH]c4)c4ccc(Cl)c(Cl)c43)C2)CC1=O` (stereo not shown) [Example 312, 4-(6,7-dichloro-10-(1H-pyrazol-4-yl)-1,2,3,4-tetrahydropyrazino[1,2-a]indole-2-carbonyl)-1-(2-methoxyethyl)pyrrolidin-2-one] reads 0.0468 µM.
Under `CN1CCN(CC(=O)N2CCn3c(c(-c4cn[nH]c4)c4ccc(Cl)c(Cl)c43)C2)C1=O` [Example 313, 1-(2-(6,7-Dichloro-10-(1H-pyrazol-4-yl)-3,4-dihydropyrazino[1,2-a]indol-2(1H)-yl)-2-oxoethyl)-3-methylimidazolidin-2-one] stands 0.0489 µM; under `O=C1NC(C(=O)N2CCn3c(c(-c4cn[nH]c4)c4ccc(Cl)c(Cl)c43)C2)CCO1` (stereo not shown) [Example 314, 4-(6,7-Dichloro-10-(1H-pyrazol-4-yl)-1,2,3,4-tetrahydropyrazino[1,2-a]indole-2-carbonyl)-1,3-oxazinan-2-one], 0.0491 µM; under `O=C1COCCN1CC(=O)N1CCn2c(c(-c3cn[nH]c3)c3ccc(Cl)c(Cl)c32)C1` [Example 315, 4-(2-(6,7-Dichloro-10-(1H-pyrazol-4-yl)-3,4-dihydropyrazino[1,2-a]indol-2(1H)-yl)-2-oxoethyl)morpholin-3-one], 0.0503 µM.
Turning to `O=C1CCCN1CC(=O)N1CCn2c(c(-c3cn[nH]c3)c3ccc(Cl)c(Cl)c32)C1` [Example 316, 1-(2-(6,7-Dichloro-10-(1H-pyrazol-4-yl)-3,4-dihydropyrazino[1,2-a]indol-2(1H)-yl)-2-oxoethyl)pyrrolidin-2-one], the IC50 worked out at 0.0509 µM.
Under `COCCOCCC(=O)N1CCn2c(c(-c3cn[nH]c3)c3ccc(Cl)c(Cl)c32)C1` [Example 317, 1-(6,7-Dichloro-10-(1H-pyrazol-4-yl)-3,4-dihydropyrazino[1,2-a]indol-2(1H)-yl)-3-(2-methoxyethoxy)propan-1-one] stands 0.0516 µM.
Under `COCC(=O)N(C)CC(=O)N1CCn2c(c(-c3cn[nH]c3)c3ccc(Cl)c(Cl)c32)C1` [Example 318, N-(2-(6,7-Dichloro-10-(1H-pyrazol-4-yl)-3,4-dihydropyrazino[1,2-a]indol-2(1H)-yl)-2-oxoethyl)-2-methoxy-N-methylacetamide] stands 0.0524 µM.
The result for `CN1CC(C(=O)N2CCn3c(c(-c4cn[nH]c4)c4ccc(Cl)c(Cl)c43)C2)CC1=O` (stereo not shown) [Example 319, 4-(6,7-Dichloro-10-(1H-pyrazol-4-yl)-1,2,3,4-tetrahydropyrazino[1,2-a]indole-2-carbonyl)-1-methylpyrrolidin-2-one] reads 0.0534 µM.
`CCN1C(=O)CCC1C(=O)N1CCn2c(c(-c3cn[nH]c3)c3ccc(Cl)c(Cl)c32)C1` (stereo not shown) [Example 320, 5-(6,7-Dichloro-10-(1H-pyrazol-4-yl)-1,2,3,4-tetrahydropyrazino[1,2-a]indole-2-carbonyl)-1-ethylpyrrolidin-2-one]: the IC50 turned out to be 0.055 µM.
The result for `CC(=O)N1CC(C(=O)N2CCn3c(c(-c4cn[nH]c4)c4ccc(Cl)c(Cl)c43)C2)C1` [Example 321, 1-(3-(6,7-Dichloro-10-(1H-pyrazol-4-yl)-1,2,3,4-tetrahydropyrazino[1,2-a]indole-2-carbonyl)azetidin-1-yl)ethan-1-one] reads 0.0562 µM.
The result for `Cc1noc(COCC(=O)N2CCn3c(c(-c4cn[nH]c4)c4ccc(Cl)c(Cl)c43)C2)n1` [Example 322, 1-(6,7-Dichloro-10-(1H-pyrazol-4-yl)-3,4-dihydropyrazino[1,2-a]indol-2(1H)-yl)-2-((3-methyl-1,2,4-oxadiazol-5-yl)methoxy)ethan-1-one] reads 0.06 µM; that for `CN1C(=O)SC(CC(=O)N2CCn3c(c(-c4cn[nH]c4)c4ccc(Cl)c(Cl)c43)C2)C1=O` (stereo not shown) [Example 323, 5-(2-(6,7-Dichloro-10-(1H-pyrazol-4-yl)-3,4-dihydropyrazino[1,2-a]indol-2(1H)-yl)-2-oxoethyl)-3-methylthiazolidine-2,4-dione], 0.0613 µM.
As to `CN1C(=O)CCC1CC(=O)N1CCn2c(c(-c3cn[nH]c3)c3ccc(Cl)c(Cl)c32)C1` (stereo not shown) [Example 324, 5-(2-(6,7-Dichloro-10-(1H-pyrazol-4-yl)-3,4-dihydropyrazino[1,2-a]indol-2(1H)-yl)-2-oxoethyl)-1-methylpyrrolidin-2-one], the IC50 came out at 0.0626 µM.
Under `O=C(CCc1ncc(F)cn1)N1CCn2c(c(-c3cn[nH]c3)c3ccc(Cl)c(Cl)c32)C1` [Example 325, 1-(6,7-Dichloro-10-(1H-pyrazol-4-yl)-3,4-dihydropyrazino[1,2-a]indol-2(1H)-yl)-3-(5-fluoropyrimidin-2-yl)propan-1-one] stands 0.0626 µM; under `CN1C(=O)CCC1C(=O)N1CCn2c(c(-c3cn[nH]c3)c3ccc(Cl)c(Cl)c32)C1` (stereo not shown) [Example 326, 5-(6,7-Dichloro-10-(1H-pyrazol-4-yl)-1,2,3,4-tetrahydropyrazino[1,2-a]indole-2-carbonyl)-1-methylpyrrolidin-2-one], 0.0627 µM; under `CN1C(=O)CN(CC(=O)N2CCn3c(c(-c4cn[nH]c4)c4ccc(Cl)c(Cl)c43)C2)C1=O` [Example 327, 1-(2-(6,7-Dichloro-10-(1H-pyrazol-4-yl)-3,4-dihydropyrazino[1,2-a]indol-2(1H)-yl)-2-oxoethyl)-3-methylimidazolidine-2,4-dione], 0.0635 µM.
With `O=C(CCn1ccnc1)N1CCn2c(c(-c3cn[nH]c3)c3ccc(Cl)c(Cl)c32)C1` [Example 328, 1-(6,7-Dichloro-10-(1H-pyrazol-4-yl)-3,4-dihydropyrazino[1,2-a]indol-2(1H)-yl)-3-(1H-imidazol-1-yl)propan-1-one], the IC50 worked out at 0.0636 µM.
Under `CCC(=O)NC(C)C(=O)N1CCn2c(c(-c3cn[nH]c3)c3ccc(Cl)c(Cl)c32)C1` (stereo not shown) [Example 329, N-(1-(6,7-Dichloro-10-(1H-pyrazol-4-yl)-3,4-dihydropyrazino[1,2-a]indol-2(1H)-yl)-1-oxopropan-2-yl)propionamide] stands 0.0682 µM; under `CN(C)C1(CC(=O)N2CCn3c(c(-c4cn[nH]c4)c4ccc(Cl)c(Cl)c43)C2)COC1` [Example 330, 1-(6,7-Dichloro-10-(1H-pyrazol-4-yl)-3,4-dihydropyrazino[1,2-a]indol-2(1H)-yl)-2-(3-(dimethylamino)oxetan-3-yl)ethan-1-one], 0.0801 µM.
Under `CN1C(=O)CCCC1C(=O)N1CCn2c(c(-c3cn[nH]c3)c3ccc(Cl)c(Cl)c32)C1` (stereo not shown) [Example 331, 6-(6,7-Dichloro-10-(1H-pyrazol-4-yl)-1,2,3,4-tetrahydropyrazino[1,2-a]indole-2-carbonyl)-1-methylpiperidin-2-one] stands 0.083 µM; under `COCC(=O)NC(C)C(=O)N1CCn2c(c(-c3cn[nH]c3)c3ccc(Cl)c(Cl)c32)C1` (stereo not shown) [Example 333, N-(1-(6,7-Dichloro-10-(1H-pyrazol-4-yl)-3,4-dihydropyrazino[1,2-a]indol-2(1H)-yl)-1-oxopropan-2-yl)-2-methoxyacetamide], 0.0918 µM.
Under `COC1(C(=O)N2CCn3c(c(-c4cn[nH]c4)c4ccc(Cl)c(Cl)c43)C2)CCOC1` (stereo not shown) [Example 334, (6,7-Dichloro-10-(1H-pyrazol-4-yl)-3,4-dihydropyrazino[1,2-a]indol-2(1H)-yl)(3-methoxytetrahydrofuran-3-yl)methanone] stands 0.0985 µM.
